According to patent US20240043420A1, “7-AZAINDOLE COMPOUNDS FOR INHIBITION OF BCR-ABL TYROSINE KINASES” (EnLiven Therapeutics, Inc., priority 2020, published 2024):

Assays:
ABL1 (T315I) = ABL1 (T315I) (Homo sapiens, UniProt P00519, T315I); assay: Luminescence-based ABL kinase assay (ADP-Glo, 300 μM ATP), T315I mutant; type: biochemical
How it was run: (§1)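 Buffer: 50 mM HEPES pH 7.5, 10 mM MgCl2, 1 mM EGTA, 2 mM DTT, 0.05% BSA. Compound preincubated 30 min at RT with kinase (3.325 nM in enzyme solution), then started with a Peptide 2 (6 μM) and ATP (1.2 mM) solution, both stock levels; 90 min at RT.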

HL60 cells = assay: HL60 cell proliferation assay (CellTiter-Glo); type: cell-based; settings: Homo sapiens, HL-60, 72 h, CellTiter-Glo viability, read-out: Cell Line (IC50, nM) HL60
Description: (§2) K562 and HL60 cells, cultured in Iscove's Modified Dulbecco's Media (IMDM) supplemented with 10% FBS, were harvested at 50-80% confluency and plated at 2,000 cells per well (K562) or 1,500 cells per well (HL60) in 384-well tissue culture plates. A subset of wells contained media only (low control, LC). Compounds were serially diluted in DMSO. 40 nL of compound or DMSO only (high control, HC) were added to each well using an Echo 550 liquid handler (Labcyte). The plates were placed in a 37° C. incubator with 5% CO2 for 72 hours. Cell viability was measured using a CellTiter-Glo luminescent cell viability assay (Promega), which allows for relative quantification of metabolically active cells by luminescence-based measurements of intracellular ATP concentrations. Briefly, plates were removed from the incubator and equilibrated for 15 minutes at room temperature prior to the addition of 40 μL of CellTiter-Glo reagent. Plates were then incubated for 30 minutes at room temperature. Luminescence was measured using an EnSpire plate reader (Perkin Elmer). As noted above, luminescence values from wells with DMSO only or media without cells were used as high and low controls (HC and LC), respectively. Normalized percent viability was calculated as follows: percent viability=100×(Lumsample−LumLC)/(LumHC−LumLC).

K562 cells = assay: K562 cell proliferation assay (CellTiter-Glo); type: cell-based; settings: Homo sapiens, K562, 72 h, CellTiter-Glo viability, read-out: Cell Line (IC50, nM) K562
Description: as §2

ABL1 = molecular target: T1, ABL1 (Homo sapiens, UniProt P00519); assay: Luminescence-based ABL kinase assay (ADP-Glo, 300 μM ATP); type: biochemical
T1 construct: purchased Carna Biosciences
How it was run: as §1

| IC50 (ABL1 (T315I)) [nM] | IC50 (HL60 cells) [nM] | IC50 (K562 cells) [nM] | IC50 (ABL1) [nM] | SMILES |
| --- | --- | --- | --- | --- |
| 5.98 | > 10000 | 365 | 31.8 | COc1ccccc1-c1c[nH]c2nc(NC(=O)NCCN3CCNCC3)ccc12 [Compound 121, 3-[3-(2-methoxyphenyl)-1H-pyrrolo[2,3-b]pyridin-6-yl]-1-[2-(piperazin-1-yl)ethyl]urea] |
| 97.5 | > 10000 | 234 | 143 | COc1cccc(OC)c1-c1c[nH]c2nc(NC(=O)NCCN(C)C)ccc12 [Compound 132, 1-[3-(2,6-dimethoxyphenyl)-1H-pyrrolo[2,3-b]pyridin-6-yl]-3-[2-(dimethylamino)ethyl]urea] |
| 157 | > 10000 | 1860 | 271 | COc1nccc(C)c1-c1n[nH]c2nc(NC(=O)[C@@H]3C[C@@H]3F)ccc12 [Compound 112, (1S,2S)-2-fluoro-N-[3-(2-methoxy-4-methylpyridin-3-yl)-1H-pyrazolo[3,4-b]pyridin-6-yl]cyclopropane-1-carboxamide] |
| 14.9 | > 10000 | 150 | 37 | COc1cc2sncc2cc1-c1c[nH]c2nc(NC(=O)[C@@H]3C[C@@H]3F)ccc12 [Compound 84, (1S,2S)-2-fluoro-N-[3-(6-methoxy-1,2-benzothiazol-5-yl)-1H-pyrrolo[2,3-b]pyridin-6-yl]cyclopropane-1-carboxamide] |
| 2.84 | 385 | 62.1 | 7.58 | O=C(Nc1ccc2c(-c3ccc4[nH]cnc4c3)c[nH]c2n1)[C@@H]1C[C@@H]1F [Compound 28, (1S,2S)—N-[3-(1H-1,3-benzodiazol-5-yl)-1H-pyrrolo[2,3-b]pyridin-6-yl]-2-fluorocyclopropane-1-carboxamide] |
| 140 | > 10000 | 527 | 51.2 | COc1ncnc(OC)c1-c1c[nH]c2nc(NC(=O)NCCN3CCNCC3)ccc12 [Compound 138, 3-[3-(4,6-dimethoxypyrimidin-5-yl)-1H-pyrrolo[2,3-b]pyridin-6-yl]-1-[2-(piperazin-1-yl)ethyl]urea] |
| 7.08 | > 10000 | 278 | 39 | CCN1CCN(CCNC(=O)Nc2ccc3c(-c4ccccc4OC)c[nH]c3n2)CC1 [Compound 109, 1-[2-(4-ethylpiperazin-1-yl)ethyl]-3-[3-(2-methoxyphenyl)-1H-pyrrolo[2,3-b]pyridin-6-yl]urea] |
| 28.6 | > 10000 | 229 | 55.1 | COc1cc2cc[nH]c2cc1-c1c[nH]c2nc(NC(=O)C3CC3)ccc12 [Compound 17, N-[3-(5-methoxy-1H-indol-6-yl)-1H-pyrrolo[2,3-b]pyridin-6-yl]cyclopropanecarboxamide] |
| 32.3 | > 10000 | 223 | 113 | Cc1ccccc1-c1c[nH]c2nc(NC(=O)C3CC3)ccc12 [Compound 4, N-[3-(2-methylphenyl)-1H-pyrrolo[2,3-b]pyridin-6-yl]cyclopropanecarboxamide] |
| 26.1 | > 10000 | 275 | 78.1 | COc1ccccc1-c1c[nH]c2nc(NC(=O)[C@H]3C[C@H]3C#N)ccc12 (relative stereo) [Compound 106, cis-2-cyano-N-[3-(2-methoxyphenyl)-1H-pyrrolo[2,3-b]pyridin-6-yl]cyclopropane-1-carboxamide] |
| 1.37 | > 10000 | 8.67 | 4.65 | COc1ncnc(OC2CC2)c1-c1c[nH]c2nc(NC(=O)[C@@H]3C[C@@H]3F)ccc12 [Compound 153, (1S,2S)—N-[3-(4-cyclopropoxy-6-methoxypyrimidin-5-yl)-1H-pyrrolo[2,3-b]pyridin-6-yl]-2-fluorocyclopropane-1-carboxamide] |
| 15.3 | > 10000 | 94.2 | 16.4 | [2H]C([2H])([2H])Oc1ccccc1-c1n[nH]c2nc(NC(=O)[C@@H]3C[C@@H]3F)ccc12 [Compound 101, (1S,2S)-2-fluoro-N-(3-(2-(methoxy-d3)phenyl)-1H-pyrazolo[3,4-b]pyridin-6-yl)cyclopropane-1-carboxamide] |
| 103 | > 10000 | 231 | 46.1 | CNc1ncccc1-c1c[nH]c2nc(NC(=O)C3CC3)ccc12 [Compound 37, N-[3-[2-(methylamino)pyridin-3-yl]-1H-pyrrolo[2,3-b]pyridin-6-yl]cyclopropanecarboxamide] |
| 244 | 9210 | 777 | 94.9 | O=C(Nc1ccc2c(-c3cccnc3OC(F)F)c[nH]c2n1)C1CC1 [Compound 48, N-[3-[2-(difluoromethoxy)pyridin-3-yl]-1H-pyrrolo[2,3-b]pyridin-6-yl]cyclopropanecarboxamide] |
| 17.8 | > 10000 | 48 | 12.5 | COc1ncnc(OC)c1-c1c[nH]c2nc(NC(=O)[C@@H]3C[C@@H]3F)ccc12 [Compound 102, (1S,2S)—N-[3-(4,6-dimethoxypyrimidin-5-yl)-1H-pyrrolo[2,3-b]pyridin-6-yl]-2-fluorocyclopropane-1-carboxamide] |
| 65.6 | > 10000 | 452 | 123 | O=C(Nc1ccc2c(-c3ccccc3Cl)c[nH]c2n1)C1CC1 [Compound 6, N-[3-(2-chlorophenyl)-1H-pyrrolo[2,3-b]pyridin-6-yl]cyclopropanecarboxamide] |
| 10.5 | 470 | 454 | 41.8 | Cc1nc2cc(-c3c[nH]c4nc(NC(=O)C5CC5)ccc34)ccc2[nH]1 [Compound 29, N-(3-(2-methyl-1H-benzo[d]imidazol-5-yl)-1H-pyrrolo[2,3-b]pyridin-6-yl)cyclopropanecarboxamide] |
| 27.8 | 7250 | 46 | 5.34 | COc1cc2scnc2cc1-c1c[nH]c2nc(NC(=O)[C@@H]3C[C@@H]3F)ccc12 [Compound 85, (1S,2S)-2-fluoro-N-[3-(6-methoxy-1,3-benzothiazol-5-yl)-1H-pyrrolo[2,3-b]pyridin-6-yl]cyclopropane-1-carboxamide] |
| 52.8 | > 10000 | 416 | 91.2 | COc1ncccc1-c1c[nH]c2nc(NC(=O)C3CC3)ccc12 [Compound 14, N-[3-(2-methoxypyridin-3-yl)-1H-pyrrolo[2,3-b]pyridin-6-yl]cyclopropanecarboxamide] |
| 19.2 | 3690 | 607 | 78.2 | COc1ncccc1-c1c(F)[nH]c2nc(NC(=O)[C@@H]3C[C@@H]3F)ccc12 [Compound 68, (1S,2S)-2-fluoro-N-[2-fluoro-3-(2-methoxypyridin-3-yl)-1H-pyrrolo[2,3-b]pyridin-6-yl]cyclopropane-1-carboxamide] |
| 8.74 | 1570 | 286 | 94.8 | O=C(Nc1ccc2c(-c3ccc4[nH]ncc4c3)c[nH]c2n1)C1CC1 [Compound 21, N-(3-(1H-indazol-5-yl)-1H-pyrrolo[2,3-b]pyridin-6-yl)cyclopropanecarboxamide] |
| 4.57 | 287 | 147 | 11.2 | O=C(Nc1ccc2c(-c3ccc4[nH]cnc4c3)c[nH]c2n1)C1CC1 [Compound 19, N-[3-(1H-1,3-benzodiazol-5-yl)-1H-pyrrolo[2,3-b]pyridin-6-yl]cyclopropanecarboxamide] |
| 9.96 | > 10000 | 176 | 22.2 | COc1ccccc1-c1c[nH]c2nc(NC(=O)[C@H]3C[C@H]3F)ccc12 [Compound 2, (1R,2R)-2-fluoro-N-(3-(2-methoxyphenyl)-1H-pyrrolo[2,3-b]pyridin-6-yl)cyclopropane-1-carboxamide] |
| 24.6 | > 10000 | 1080 | 166 | COc1ccccc1-c1c[nH]c2nc(NC(=O)[C@H]3C[C@H]3CO)ccc12 [Compound 91, (1S,2R)-2-(hydroxymethyl)-N-[3-(2-methoxyphenyl)-1H-pyrrolo[2,3-b]pyridin-6-yl]cyclopropane-1-carboxamide] |
| 54.5 | > 10000 | 333 | 27.4 | O=C(NCCN1CCNCC1)Nc1ccc2c(-c3ccccc3OC3CC3)n[nH]c2n1 [Compound 136, 3-[3-(2-cyclopropoxyphenyl)-1H-pyrazolo[3,4-b]pyridin-6-yl]-1-[2-(piperazin-1-yl)ethyl]urea] |
